Source: the CheMixHub viscosity set
± gives the uncertainty stated by the source.

Assay: xn = mol fraction of the nth substance listed

CCCCCCC(C)O (stereo unspecified) + C1CCCCC1
303.15 K, 101.33 kPa
Conditions | viscosity [mPa·s]
x1 = 0.0999 | 0.9208 ± 0.011
x1 = 0.2048 | 1.086 ± 0.013
x1 = 0.303 | 1.317 ± 0.016
x1 = 0.3982 | 1.601 ± 0.019
x1 = 0.4667 | 1.847 ± 0.022
x1 = 0.5235 | 2.072 ± 0.024
x1 = 0.5347 | 2.124 ± 0.025
x1 = 0.6961 | 2.908 ± 0.033
x1 = 0.7992 | 3.516 ± 0.04
x1 = 0.899 | 4.161 ± 0.047

CN(C)CCN(C)C + O
viscosity [mPa·s], 100 kPa
Conditions | 293.15 K | 303.15 K | 313.15 K | 323.15 K
x1 = 0.001 | 1.041 ± 0.06 | 0.83 ± 0.06 | 0.679 ± 0.06 | 0.564 ± 0.06
x1 = 0.01 | 1.375 ± 0.06 | 1.143 ± 0.06 | 0.941 ± 0.06 | 0.732 ± 0.06
x1 = 0.025 | 2.406 ± 0.061 | 1.734 ± 0.061 | 1.303 ± 0.06 | 1.012 ± 0.06
x1 = 0.05 | 5.033 ± 0.066 | 3.269 ± 0.063 | 2.032 ± 0.061 | 1.409 ± 0.061
x1 = 0.075 | 8.363 ± 0.072 | 4.972 ± 0.066 | 2.688 ± 0.062 | 1.769 ± 0.061
x1 = 0.1 | 11.53 ± 0.079 | 6.033 ± 0.067 | 3.292 ± 0.063 | 2.114 ± 0.061
x1 = 0.2 | 12.82 ± 0.083 | 7.744 ± 0.071 | 4.885 ± 0.065 | 3.185 ± 0.063
x1 = 0.3 | 7.906 ± 0.073 | 5.945 ± 0.068 | 4.23 ± 0.065 | 3.011 ± 0.062
x1 = 0.399 | 3.497 ± 0.064 | 2.56 ± 0.062 | 1.9 ± 0.061 | 1.45 ± 0.061
x1 = 0.5 | 1.887 ± 0.061 | 1.456 ± 0.061 | 1.117 ± 0.06 | 0.904 ± 0.06
x1 = 0.601 | 1.344 ± 0.061 | 1.064 ± 0.06 | 0.853 ± 0.06 | 0.69 ± 0.06
x1 = 0.7 | 1.066 ± 0.06 | 0.881 ± 0.06 | 0.724 ± 0.06 | 0.585 ± 0.06
x1 = 0.8 | 0.859 ± 0.06 | 0.733 ± 0.06 | 0.625 ± 0.06 | 0.52 ± 0.06
x1 = 0.9 | 0.715 ± 0.06 | 0.63 ± 0.06 | 0.554 ± 0.06 | 0.473 ± 0.06

[K+].[K+].[O]=[Cr](=[O])([O-])[O][Cr](=[O])(=[O])[O-] + O
viscosity [mPa·s], 101 kPa
Conditions | x1 = 0.001 | x1 = 0.003 | x1 = 0.0068 | x1 = 0.015
298.15 K | 0.89 ± 0.01 | 0.9 ± 0.1 | 0.91 ± 0.01 | –
312.95 K | 0.66 ± 0.01 | 0.67 ± 0.01 | 0.68 ± 0.01 | 0.73 ± 0.01

NCCNCCNCCN + CCO
313.15 K, 100 kPa
Conditions | viscosity [mPa·s]
x1 = 0.02 | 0.94 ± 0.06
x1 = 0.034 | 1.1 ± 0.07
x1 = 0.073 | 1.47 ± 0.09
x1 = 0.17 | 2.67 ± 0.16

c1c[nH]cn1 + O=C1CCCCCN1
101 kPa, x2 = 0.5
Conditions | viscosity [mPa·s]
303.2 K | 49.07 ± 0.68
313.1 K | 25 ± 0.41
323.1 K | 16.2 ± 0.22

c1ccncc1 + Cc1cccc(C)c1
viscosity [mPa·s], 101 kPa
Conditions | x2 = 0.1993 | x2 = 0.2997 | x2 = 0.3994 | x2 = 0.524 | x2 = 0.5987 | x2 = 0.7003 | x2 = 0.7968 | x2 = 0.8972
293.15 K | 0.8031 ± 0.012 | 0.7468 ± 0.011 | 0.7151 ± 0.01 | 0.6612 ± 0.0098 | 0.6415 ± 0.0096 | 0.6114 ± 0.0092 | 0.59 ± 0.009 | 0.5649 ± 0.0087
303.15 K | 0.7062 ± 0.01 | 0.6592 ± 0.0098 | 0.6241 ± 0.0094 | 0.5859 ± 0.009 | 0.5687 ± 0.0088 | 0.547 ± 0.0085 | 0.5279 ± 0.0083 | 0.5097 ± 0.008
313.15 K | 0.6189 ± 0.0094 | 0.5815 ± 0.0089 | 0.5504 ± 0.0085 | 0.5173 ± 0.0082 | 0.5023 ± 0.008 | 0.4843 ± 0.0078 | 0.4668 ± 0.0076 | 0.4544 ± 0.0074
323.15 K | 0.5442 ± 0.0085 | 0.5118 ± 0.0081 | 0.4851 ± 0.0078 | 0.4563 ± 0.0075 | 0.4433 ± 0.0073 | 0.428 ± 0.0071 | 0.4122 ± 0.007 | 0.4019 ± 0.0069

c1ccncc1 + CCCCn1cc[n+](C)c1.F[B-](F)(F)F
Conditions | viscosity [mPa·s]
298.15 K, 101 kPa, x1 = 0.1059 | 81.9 ± 17

CCCCCCC(C)O (stereo unspecified) + CCCCCCCC
298.15 K, 101 kPa
Conditions | viscosity [mPa·s]
x2 = 0.0487 | 5.956 ± 0.057
x2 = 0.1002 | 5.301 ± 0.049
x2 = 0.1498 | 4.654 ± 0.043
x2 = 0.2006 | 3.998 ± 0.036
x2 = 0.2516 | 3.364 ± 0.029
x2 = 0.3003 | 2.796 ± 0.024
x2 = 0.3538 | 2.228 ± 0.019
x2 = 0.4003 | 1.79 ± 0.015
x2 = 0.4466 | 1.411 ± 0.012
x2 = 0.5001 | 1.049 ± 0.01
x2 = 0.5517 | 0.778 ± 0.009
x2 = 0.6002 | 0.59 ± 0.008
x2 = 0.6539 | 0.454 ± 0.007
x2 = 0.6994 | 0.39 ± 0.007
x2 = 0.7449 | 0.366 ± 0.007
x2 = 0.8 | 0.376 ± 0.007
x2 = 0.8465 | 0.402 ± 0.007
x2 = 0.9003 | 0.434 ± 0.007
x2 = 0.9521 | 0.441 ± 0.007

c1ccncc1 + CCO
298.15 K, 101 kPa
Conditions | viscosity [mPa·s]
x1 = 0.2992 | 1.034 ± 0.017
x1 = 0.4997 | 0.9591 ± 0.016
x1 = 0.6607 | 0.8792 ± 0.015
x1 = 0.7996 | 0.8773 ± 0.015

CCCCCCCCCC(=O)O + CCCCCCCCCCCCCCC
100 kPa, x2 = 0.8127
Conditions | viscosity [mPa·s]
298.2 K | 2.95 ± 0.18
308.2 K | 2.29 ± 0.14
318.2 K | 1.83 ± 0.11

C[N+](C)(CCO)CCO.[Cl-] + NC(N)=O
100 kPa, x1 = 0.5
Conditions | viscosity [mPa·s]
293.15 K | 3865 ± 230
298.15 K | 2440 ± 130
303.15 K | 1596 ± 76
308.15 K | 1065 ± 46
313.15 K | 724 ± 28
318.15 K | 514 ± 18
323.15 K | 368 ± 12
